Source: patent US20080311589A1, “METHOD OF HIGH-THROUGHPUT SCREENING OF MOLECULES AND COMPOUNDS FOR THEIR EFFECTS ON BIOLOGICAL AND CHEMICAL PROCESSES” (priority 1999, published 2008)

What was measured:
phosphorylated nucleolin = test: anti-phosphonucleolin (TG-3) cytoblot screen; format: cell-based, human
Procedure: A detection assay providing an indirect measure of the mitotic index of a population of cells was used to identify compounds that act as cell cycle inhibitors. By measuring the level of phosphorylation of a chromatin-associated protein using the anti-phosphonucleolin (TG-3) cytoblot (Stockwell et al. 1999), nucleolin the mitotic index (i.e., the number of cell in mitosis) was assessed. In brief, the library compounds were dissolved in DMSO (5 mg/ml) and pin-transferred from 384-well plates (Library plates #1-51) for a final concentration 5-10 ug/ml using a 384-polypropylene pin array (Genetix) into 384-well screening plates (Nunc) seeded with 4,000 A549 human lung carcinoma cells (ATCC) in DMEM+ and incubated for 22 hours at 37° C. with 5% CO2. Compounds from library plates #1-24 were pooled at two compounds per well, while compounds from library plates #25-51 were tested singly. […] The reactivity of the anti-phosphonucleolin antibody was measured using enhanced chemiluminescent detection (Amersham) after incubation of each well with a horseradish peroxidase-coupled anti-mouse IgM secondary antibody (Sigma) and addition of luminol. The relative luminescence produced from each well was measured on an automatic plate reader (LJL Analyst). […]

BS-C-1 cells = test: fluorescence microscopy and live imaging of BS-C-1 cells; format: cell-based, monkey
Procedure: We investigated the phenotype of mammalian cells (BS-C-I) treated with the compounds of group III. […] Our examination of the distribution of microtubules, actin, and chromatin in fixed cells by fluorescence microscopy allowed us to divide the small molecules into three classes.
In brief, BSCI cells were seeded on glass coverslips and cultured overnight.
We then asked whether the chromosomes surrounding the monoastral microtubule array maintain microtubule attachment.

[1] = system: Golgi apparatus or lysosomes; test: distribution of lysosomes and Golgi apparatus; format: cell-based; details: concentrations that caused strong spindle defects; interphase cells
Source text: We investigated the phenotype of mammalian cells (BS-C-I) treated with the compounds of group III. Live images were taken as described previously (Cramer et al., Curr. Op. Cell Biol. 6:82, 1994); for immunofluoresence, the cells were stained with a Golgi-specific antibody (anti-Golgi 58K protein antibodies [Sigma]) or with anti-α-tubulin antibodies (DM1 A [Sigma]); actin was visualized using TRIC-conjugated phalliodin (Sigma); lysosomes were stained with LysoTracker (Molecular Probes; Palmiter et al., EMBO J. 15:1784, 1996). Our examination of the distribution of microtubules, actin, and chromatin in fixed cells by fluorescence microscopy allowed us to divide the small molecules into three classes. Twenty-seven had no observable effect on the microtubule and actin cytoskeleton or on cheomosome distribution. Consistent with the data from the cytoblot assay we observed an increase in the number of normal appearing mitotic cells. These compounds may increase the mitotic index by perturbing the function of proteins that regulate progression through the cell cycle, e.g., anaphase regulators, rather than structural or mechanochemical components of the mitotic spindle. It is also possible that these compounds have a subtle effect on cytoskeletal dynamics or chromosome organization that may not be observable in fixed cells. […]

Substance: monastrol
- EC50 (effective concentration) in the cytoblot assay (phosphorylated nucleolin): 22 µM
- mitotic cells displaying the monoastral phenotype (BS-C-1 cells): Over 90%
- microtubule, spindle and chromosome phenotype (BS-C-1 cells; BS-C-1 cells, 1A at 40 μM for 4 hours): the bipolar spindle was replaced with a monoastral microtubule array surrounded by a ring of chromosomes
- chromosome attachment to microtubules (BS-C-1 cells; live images of BS-C-1 cells): does not inhibit chromosome attachment to microtubules
- localization and organization of Golgi apparatus or lysosomes [1]: did not affect localization and organization of the Golgi apparatus or lysosomes in interphase cells
